Results from patent publication US10100064B2, “Purine inhibitors of human phosphatidylinositol 3-kinase delta” (Merck Sharp & Dohme Corp., priority 2014, dated 2018).

Key:
PI3Kdelta = target: T1, PI3Kdelta (Homo sapiens, UniProt O00329); assay: HTRF PI3K biochemical assay, delta isoform; conditions: 0.3 nM enzyme, 100 uM ATP, 5 uM PIP2, form screened (Neutral or TFA salt) given per compound
T1 construct: purchased Upstate; Millipore 14-604
Source text: (§1) HTRF PI3K Biochemical Assay to Measure Intrinsic Potency of Compound Inhibitors
(§2) The PI3-Kinase biochemical assays were developed to measure the intrinsic potency and compound dependent inhibition of the alpha, beta, delta, and gamma PI3K isoform enzymes. This assay was developed and further optimized from a kit produced by Upstate (Millipore catalog #33-047) and has been configured for HTS and SAR screening. Briefly, this procedure exploits the exquisite specificity and high affinity binding of […] phosphatidyl(3,4,5)triphosphate (PIP3) to the GRP1 pleckstrin homology (PH) domain to generate the signal. In the absence of PIP3, an HTRF (Homogeneous Time-Resolved Fluorescence energy transfer) complex is formed consisting of europium (Eu)-labeled anti-GST, GSTtagged GRP1-PH domain, biotin-PIP3 and streptavidin conjugated APC. The native PIP3 produced by PI3-Kinase activity disrupts in a competitive manner the biotin-PIP3 from the PH domain, resulting in the loss of energy transfer (HTRF complex) and a decrease in the signal. The format of this assay is the same for all 4 isoforms of PI3K; the differences lie in the concentration of enzyme used to achieve robust assay window. The alpha, beta, and delta assays are run at 0.5, 1, and 0.3 nM enzymes and the gamma assay is run at 5 nM enzyme. The ATP concentration is 100 uM in the alpha, beta, and delta assays and 50 uM ATP in the gamma assay. All reactions are run at 5 uM PIP2.
(§3) Compounds are serially diluted (3-fold in 100% DMSO) across a 384-well polypropylene source plated from column 3 to column 12 and column 13 to column 22, to yield 10 concentration dose response for each test compound. Columns 1, 2, 23 and 24 contain either only DMSO or pharmacological known control inhibitor. Once titrations are made, 2.5 nL of the compounds on 384 well plates are reformatted and transferred by acoustic dispense in quadruplicates to a 1536 assay plate (Greiner) to assay across all four PI3K isoform enzymes.
(§4) The PI3-Kinase biochemical assay was optimized using the HTRF kit provided by Upstate (Millipore). The assay kit contains six reagents: 1) 4× Reaction Buffer; 2) native PIP2 (substrate); 3) Stop (EDTA); 4) Detection Mix A (Streptavidin-APC); 5) Detection Mix B (Eu-labeled Anti-GST plus GST-tagged PH-domain); 6) Detection Mix C. In addition, the following items were obtained or purchased; PI3Kinase (alpha 14-602, beta 14-603, gamma 14-558 and delta 14-604 from Upstate; Millipore), dithiothreitol (Sigma, D-5545), Adenosine-5′ triphosphate (InVitrogen, Cat#AS001A), native PIP3 (PI(3,4,5)P3, diC8, H^+, CELLSIGNALS, INC. Cat #907) DMSO (Sigma, 472301).
(§5) PI3Kinase Reaction Buffer is prepared by dilution the stock 1:4 with de-ionized water. DTT, PIP2 and Biotin-PIP3 were added to 1536 assay plate at a final concentration of 5 mM, […] 25 nM on the day of use. Enzyme addition and compound pre-incubation are initiated by the addition of 1.25 ul of PI3K (at twice its final concentration) in the 1× reaction buffer to all wells using a BioRaptor. Plates are incubated at room temperature for 15 minutes. Reactions are initiated by addition of 1.25 ul of 2× substrate solution (PIP2 and ATP in 1× reaction buffer) using BioRaptor. Plates are incubated in humidified chamber at room temperature for one hour. Reactions are quenched by addition of 0.625 uL of stop solution to all wells using the BioRaptor. The quenched reactions are then processed to detect product formation by adding 0.625 uL of Detection Solution to all wells using the BioRaptor (Detection mix C, Detection Mix A, and Detection Mix B combined together in an 18:1:1 ratio prepared 2 hours prior to use). Following a one hour incubation in the dark, the HTRF signal is measured on the Envision plate reader set for 330 nm excitation and dual emission detection at […]. […]

PI3Kalpha = target: T2, PI3Kalpha (Homo sapiens, UniProt P42336); assay: HTRF PI3K biochemical assay, alpha isoform (selectivity versus delta); conditions: relative ratio PI3K-alpha IC50 value / PI3K-delta IC50 value
T2 construct: purchased Upstate; Millipore 14-602
T2 sequence (P42336 whole entry, canonical isoform): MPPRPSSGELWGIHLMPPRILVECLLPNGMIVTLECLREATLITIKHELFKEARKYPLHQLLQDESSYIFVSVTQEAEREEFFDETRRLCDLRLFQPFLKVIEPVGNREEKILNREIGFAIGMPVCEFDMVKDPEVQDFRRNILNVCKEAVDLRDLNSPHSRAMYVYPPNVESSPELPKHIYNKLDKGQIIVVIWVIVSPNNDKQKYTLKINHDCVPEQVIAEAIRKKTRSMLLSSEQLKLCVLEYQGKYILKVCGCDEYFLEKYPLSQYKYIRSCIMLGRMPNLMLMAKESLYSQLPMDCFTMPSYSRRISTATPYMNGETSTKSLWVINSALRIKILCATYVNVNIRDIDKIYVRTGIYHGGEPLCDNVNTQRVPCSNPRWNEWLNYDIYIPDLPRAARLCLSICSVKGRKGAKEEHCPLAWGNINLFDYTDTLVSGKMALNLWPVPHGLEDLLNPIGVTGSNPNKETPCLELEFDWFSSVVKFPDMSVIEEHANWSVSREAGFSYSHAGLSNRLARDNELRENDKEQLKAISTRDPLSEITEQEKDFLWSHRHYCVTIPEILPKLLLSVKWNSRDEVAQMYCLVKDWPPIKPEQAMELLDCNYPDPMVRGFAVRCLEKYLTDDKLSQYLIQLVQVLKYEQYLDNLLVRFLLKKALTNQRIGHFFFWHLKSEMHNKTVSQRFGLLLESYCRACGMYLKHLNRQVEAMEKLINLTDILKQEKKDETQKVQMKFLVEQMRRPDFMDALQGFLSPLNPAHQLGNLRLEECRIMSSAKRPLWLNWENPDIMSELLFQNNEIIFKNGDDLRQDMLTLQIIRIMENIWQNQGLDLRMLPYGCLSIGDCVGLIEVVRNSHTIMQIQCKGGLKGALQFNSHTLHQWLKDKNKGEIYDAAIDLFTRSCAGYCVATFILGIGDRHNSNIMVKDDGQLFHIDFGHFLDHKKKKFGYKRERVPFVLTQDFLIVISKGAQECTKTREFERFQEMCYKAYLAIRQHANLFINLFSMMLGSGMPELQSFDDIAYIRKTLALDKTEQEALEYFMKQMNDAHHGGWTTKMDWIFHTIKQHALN
T2 sequence (P27986 whole entry partner, canonical isoform): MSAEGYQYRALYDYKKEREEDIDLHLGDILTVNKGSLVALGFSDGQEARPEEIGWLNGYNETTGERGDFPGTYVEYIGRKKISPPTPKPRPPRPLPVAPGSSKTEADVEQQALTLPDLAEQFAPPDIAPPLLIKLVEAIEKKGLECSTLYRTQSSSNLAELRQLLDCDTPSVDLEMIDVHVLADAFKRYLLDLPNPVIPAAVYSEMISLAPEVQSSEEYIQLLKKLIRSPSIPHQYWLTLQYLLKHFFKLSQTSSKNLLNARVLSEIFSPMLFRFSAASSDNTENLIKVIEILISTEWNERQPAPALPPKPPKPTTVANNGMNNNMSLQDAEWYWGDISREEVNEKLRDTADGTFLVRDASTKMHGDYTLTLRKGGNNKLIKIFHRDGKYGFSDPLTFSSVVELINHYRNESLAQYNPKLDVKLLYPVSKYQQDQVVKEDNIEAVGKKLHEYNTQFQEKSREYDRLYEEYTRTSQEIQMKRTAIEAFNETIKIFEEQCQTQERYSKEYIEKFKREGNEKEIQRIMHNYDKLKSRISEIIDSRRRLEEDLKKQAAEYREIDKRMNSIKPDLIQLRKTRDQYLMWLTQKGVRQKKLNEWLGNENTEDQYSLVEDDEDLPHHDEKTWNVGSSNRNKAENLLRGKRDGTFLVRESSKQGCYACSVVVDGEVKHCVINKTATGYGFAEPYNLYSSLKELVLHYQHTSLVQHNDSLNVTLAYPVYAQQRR
Source text: as §1, §2, §3, §4, §5

T1 sequence (O00329 whole entry, canonical isoform): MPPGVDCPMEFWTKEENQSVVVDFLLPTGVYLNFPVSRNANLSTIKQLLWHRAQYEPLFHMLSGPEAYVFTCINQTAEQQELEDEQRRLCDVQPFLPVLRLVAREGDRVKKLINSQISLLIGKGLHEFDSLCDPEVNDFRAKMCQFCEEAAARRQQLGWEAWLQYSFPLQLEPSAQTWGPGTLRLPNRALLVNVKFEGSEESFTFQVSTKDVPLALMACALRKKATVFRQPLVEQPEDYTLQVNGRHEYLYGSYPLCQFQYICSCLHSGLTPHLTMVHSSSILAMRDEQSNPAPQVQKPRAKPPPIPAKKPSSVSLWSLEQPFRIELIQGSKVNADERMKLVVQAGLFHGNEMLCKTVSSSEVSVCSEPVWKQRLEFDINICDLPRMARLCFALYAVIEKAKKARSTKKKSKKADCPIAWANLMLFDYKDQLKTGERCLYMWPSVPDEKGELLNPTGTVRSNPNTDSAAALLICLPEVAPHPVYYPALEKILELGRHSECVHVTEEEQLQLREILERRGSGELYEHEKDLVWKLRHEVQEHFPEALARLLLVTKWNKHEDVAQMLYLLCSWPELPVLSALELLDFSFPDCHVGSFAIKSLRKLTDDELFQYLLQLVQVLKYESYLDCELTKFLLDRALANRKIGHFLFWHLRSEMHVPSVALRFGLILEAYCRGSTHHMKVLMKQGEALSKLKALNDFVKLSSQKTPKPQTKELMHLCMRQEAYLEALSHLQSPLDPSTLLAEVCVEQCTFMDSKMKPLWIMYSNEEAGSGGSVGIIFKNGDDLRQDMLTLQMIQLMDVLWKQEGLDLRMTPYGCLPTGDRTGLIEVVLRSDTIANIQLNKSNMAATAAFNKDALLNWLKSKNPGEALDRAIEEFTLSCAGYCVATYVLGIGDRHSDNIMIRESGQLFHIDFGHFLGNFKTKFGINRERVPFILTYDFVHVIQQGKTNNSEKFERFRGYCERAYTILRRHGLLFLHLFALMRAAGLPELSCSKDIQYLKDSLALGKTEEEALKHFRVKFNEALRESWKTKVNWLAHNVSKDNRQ
T1 sequence (P27986 whole entry partner, canonical isoform): as the sequence (P27986 whole entry partner, canonical isoform) above

SMILES	IC50 (PI3Kdelta) [nM]	Selectivity versus PI3Kalpha (PI3Kalpha)
CCn1c(-c2cnc(C)nc2)nc2c(OC3CCc4nnc(C5CCC5)n4C3)ncnc21 (single isomer, unassigned) [Compound 1-36, (S or R)-6-{[3-cyclobutyl-5,6,7,8-tetrahydro[1,2,4]triazolo[4,3-a]pyridin-6-yl]oxy}-9-ethyl-8-(2-methylpyrimidin-5-yl)-9H-purine]	1.1	>10
CCn1c(-c2ccc(C(F)(F)F)nc2)nc2c(NC3CCc4nnc(C(C)C)n4C3)ncnc21 (single isomer, unassigned) [Compound 1-18, (S or R)-9-ethyl-N-[3-(1-methylethyl)-5,6,7,8-tetrahydro[1,2,4]triazolo[4,3-a]pyridin-6-yl]-8-[6-(trifluoromethyl)pyridin-3-yl]-9H-purin-6-amine]	< 1	>10
CCn1c(-c2cnc(OC)c(F)c2)nc2c(NC3CCc4nnc(C(C)C)n4C3)ncnc21 (single isomer, unassigned) [Compound 1-21, (S or R)-9-ethyl-8-(5-fluoro-6-methoxypyridin-3-yl)-N-[3-(1-methylethyl)-5,6,7,8-tetrahydro[1,2,4]triazolo[4,3-a]pyridin-6-yl]-9H-purin-6-amine]	< 1	>10
CCn1c(I)nc2c(NC3CCc4nnc(C5CC5)n4C3)ncnc21 (single isomer, unassigned) [Compound 1-26, (S or R)-N-[3-cyclopropyl-5,6,7,8-tetrahydro[1,2,4]triazolo[4,3-a]pyridin-6-yl]-9-ethyl-8-iodo-9H-purin-6-amine]	12	>10
CCn1c(-c2ccc(C(F)(F)F)cc2)nc2c(NC3CCc4nnc(C(C)C)n4C3)ncnc21 (single isomer, unassigned) [Compound 1-20, (S or R)-9-ethyl-N-[(6S)-3-(1-methylethyl)-5,6,7,8-tetrahydro[1,2,4]triazolo[4,3-a]pyridin-6-yl]-8-[4-(trifluoromethyl)phenyl]-9H-purin-6-amine]	< 1	>10
CCn1c(C(F)F)nc2c(NC3CCc4nnc(C(C)C)n4C3)ncnc21 (single isomer, unassigned) [Compound 1-8, (S or R)-8-(difluoromethyl)-9-ethyl-N-[3-(1-methylethyl)-5,6,7,8-tetrahydro[1,2,4]triazolo[4,3-a]pyridin-6-yl]-9H-purin-6-amine]	460	>10
CCn1c(-c2cnc(C)nc2)nc2c(NC3CCc4nnc(C(C)C)n4C3)ncnc21 (single isomer, unassigned) [Compound 1-5, (S or R)-9-ethyl-N-[3-(1-methylethyl)-5,6,7,8-tetrahydro[1,2,4]triazolo[4,3-a]pyridin-6-yl]-8-(2-methylpyrimidin-5-yl)-9H-purin-6-amine]	1.1	>10

Next, values leading:

IC50 (PI3Kdelta) [nM]	Selectivity versus PI3Kalpha (PI3Kalpha)	SMILES
78	>10	CCn1c(-c2cnc(C)nc2)nc2c(NC3CCc4c(c(C(C)C)nn4C(=O)CC(C)(C)C)C3)ncnc21 (racemic) [Compound 2-15, (S and R)-N-[1-(3,3-dimethylbutanoyl)-3-(1-methylethyl)-4,5,6,7-tetrahydro-1H-indazol-5-yl]-9-ethyl-8-(2-methylpyrimidin-5-yl)-9H-purin-6-amine]
230	>10	CCn1c(-c2cnc(C)nc2)nc2c(NC3CCc4ncn([C@H]5C[C@@H](OC)C5)c4C3)ncnc21 (single isomer, unassigned) [Compound 5-14, (S or R)-9-ethyl-N-[1-(cis-3-methoxycyclobutyl)-4,5,6,7-tetrahydro-1H-benzimidazol-6-yl]-8-(2-methylpyrimidin-5-yl)-9H-purin-6-amine]
51	>10	CCn1c(C(=O)NCC(F)(F)F)nc2c(NC3CCc4ncn(C5CC5)c4C3)ncnc21 (single isomer, unassigned) [Compound 5-9, (S or R)-6-[(1-cyclopropyl-4,5,6,7-tetrahydro-1H-benzimidazol-6-yl)amino]-9-ethyl-N-(2,2,2-trifluoroethyl)-9H-purine-8-carboxamide]
120	>10	CCn1c(-c2cnc(C)nc2)nc2c(NC3Cc4c(ncn4C(C)C)CC3C)ncnc21 (single isomer, unassigned) [Compound 5-20, 9-ethyl-N-[trans-5-methyl-1-(1-methylethyl)-4,5,6,7-tetrahydro-1H-benzimidazol-6-yl]-8-(2-methylpyrimidin-5-yl)-9H-purin-6-amine]
60	>10	CCn1c(C(F)F)nc2c(NC3CCc4[nH]nc(C(C)C)c4C3)ncnc21 (racemic) [Compound 2-9, (S and R)-8-(difluoromethyl)-9-ethyl-N-[3-(1-methylethyl)-4,5,6,7-tetrahydro-1H-indazol-5-yl]-9H-purin-6-amine]
21	>10	CCn1c(-c2cnc(C)nc2)nc2c(NC3(C)CCc4[nH]nc(C(C)C)c4C3)ncnc21 (single isomer, unassigned) [Compound 2-6, (S or R)-9-ethyl-N-[5-methyl-3-(1-methylethyl)-4,5,6,7-tetrahydro-1H-indazol-5-yl]-8-(2-methylpyrimidin-5-yl)-9H-purin-6-amine]
2.6	>10	CCn1c(-c2cnc(C)nc2)nc2c(NC3CCc4c(c(C(C)C)nn4C(=O)OC(C)(C)C(F)(F)F)C3)ncnc21 (racemic) [Compound 2-20, (S and R)-2,2,2-trifluoro-1,1-dimethylethyl 5-{[9-ethyl-8-(2-methylpyrimidin-5-yl)-9H-purin-6-yl]amino}-3-(1-methylethyl)-4,5,6,7-tetrahydro-1H-indazole-1-carboxylate]
2.9	>10	CCn1c(-c2cnc(C)nc2)nc2c(NC3CCc4[nH]nc(C5CC5)c4C3)ncnc21 (single isomer, unassigned) [Compound 2-2, (S or R)-N-[3-cyclopropyl-4,5,6,7-tetrahydro-1H-indazol-5-yl]-9-ethyl-8-(2-methylpyrimidin-5-yl)-9H-purin-6-amine]
< 1	>10	CCn1c(-c2cnc(C)nc2)nc2c(NC3CCc4c(c(C5CC5)nn4C(=O)OC(C)(C)C)C3)ncnc21 (racemic) [Compound 2-1, (S and R)-tert-butyl 3-cyclopropyl-5-{[9-ethyl-8-(2-methylpyrimidin-5-yl)-9H-purin-6-yl]amino}-4,5,6,7-tetrahydro-1H-indazole-1-carboxylate]
510	>10	CCn1c(-c2cnc(C)nc2)nc2c(NC3Cc4c(ncn4C(C)C)C(C)C3)ncnc21 (single isomer, unassigned) [Compound 5-18, 9-ethyl-N-[(4(S or R), 6(S or R)-4-methyl-1-(1-methylethyl)-4,5,6,7-tetrahydro-1H-benzimidazol-6-yl]-8-(2-methylpyrimidin-5-yl)-9H-purin-6-amine]
